In US10336730B2, “Substituted glycine derived FXIA inhibitors” (BRISTOL-MYERS SQUIBB COMPANY, priority 2015, dated 2019) one finds Ki data, which are given here for 24 compounds.

Usually Ki stands for the dissociation constant of the complex between target and ligand, obtained from inhibition or displacement.

For the assay, the target named is T1, purified human Factor XIa (Homo sapiens, UniProt P03951).
T1 construct: purchased Haematologic Technologies
T1 sequence (P03951 388-625 limits assumed): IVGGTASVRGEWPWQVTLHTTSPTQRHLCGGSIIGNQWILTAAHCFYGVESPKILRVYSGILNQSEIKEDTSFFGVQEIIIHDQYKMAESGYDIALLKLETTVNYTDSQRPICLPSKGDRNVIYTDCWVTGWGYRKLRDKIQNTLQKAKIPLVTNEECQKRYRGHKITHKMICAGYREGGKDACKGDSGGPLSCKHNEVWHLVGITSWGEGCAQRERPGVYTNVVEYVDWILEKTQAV
T1 sequence (P03951 19-387 partner limits assumed): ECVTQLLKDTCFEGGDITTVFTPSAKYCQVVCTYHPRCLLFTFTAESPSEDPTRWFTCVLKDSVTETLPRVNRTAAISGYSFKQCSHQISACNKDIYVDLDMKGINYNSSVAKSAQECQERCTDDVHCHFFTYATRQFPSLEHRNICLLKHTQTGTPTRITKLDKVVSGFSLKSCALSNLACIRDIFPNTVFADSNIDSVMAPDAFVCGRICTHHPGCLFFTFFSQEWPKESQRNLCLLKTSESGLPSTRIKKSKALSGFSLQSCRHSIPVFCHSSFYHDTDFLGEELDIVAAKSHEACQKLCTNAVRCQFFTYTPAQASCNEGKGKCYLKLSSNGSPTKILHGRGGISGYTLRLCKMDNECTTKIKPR
Briefly: Factor XIa enzyme inhibition assay (chromogenic substrate S-2366), Ki. The following applies: substrate S-2366, pH 7.4. The assay is classed as biochemical. How it is done: The effectiveness of compounds of the present invention as inhibitors of the coagulation Factors XIa, VIIa, IXa, Xa, XIIa, plasma kallikrein, thrombin, chemytrypsin or trypsin can be determined using a relevant purified serine protease, respectively, and an appropriate synthetic substrate. The rate of hydrolysis of the chromogenic or fluorogenic substrate by the relevant serine protease was measured both in the absence and presence of compounds of the present invention. […] A decrease in the rate of absorbance or fluorescence change in the presence of inhibitor is indicative of enzyme inhibition. Such methods are known to one skilled in the art. The results of this assay are expressed as the inhibitory constant, Ki.
Factor XIa determinations were made in 50 mM HEPES buffer at pH 7.4 containing 145 mM NaCl, 5 mM KCl, and 0.1% PEG 8000 (polyethylene glycol; JT Baker or Fisher Scientific). Determinations were made using purified human Factor XIa at a final concentration of […] (Haematologic Technologies) and the synthetic substrate S-2366 (pyroGlu-Pro-Arg-pNA; CHROMOGENIX® or AnaSpec) at a concentration of 0.0002-0.001 M.
Values of Ki were determined by allowing the protease to react with the substrate in the presence of the inhibitor. Reactions were allowed to go for periods of 20-180 minutes (depending on the protease) and the velocities (rate of absorbance or fluorescence change versus time) were measured. The following relationships were used to calculate Ki values: (Vmax*S)/(Km+S) (vo−vs)/vs=I/(Ki*(1+S/Km)) for a competitive inhibitor with one binding site; or vs/vo=A+(B−A)/(1+(IC50/(I)^n)); and Ki=IC50/(1+S/Km) for a competitive inhibitor where: […]
In turn, `CC(C)c1nnc2n1CCN(C(=O)[C@H](Cc1ccccc1)n1cnc(-c3cc(Cl)ccc3-n3cc(Cl)nn3)cc1=O)C2` [Example 67, (S)-6-(5-chloro-2-(4-chloro-1H-1,2,3-triazol-1-yl)phenyl)-3-(1-(3-isopropyl-5,6-dihydro-[1,2,4]triazolo[4,3-a]pyrazin-7(8H)-yl)-1-oxo-3-phenylpropan-2-yl)pyrimidin-4(3H)-one] had a Ki of 7.37 µM.
On to `CN1CCN(C(=O)[C@H](Cc2ccccc2)n2cnc(-c3cc(Cl)ccc3-n3cc(Cl)nn3)cc2=O)CC1` [Example 68, (S)-6-(5-chloro-2-(4-chloro-1H-1,2,3-triazol-1-yl)phenyl)-3-(1-(4-methylpiperazin-1-yl)-1-oxo-3-phenylpropan-2-yl)pyrimidin-4(3H)-one], for which the inhibition constant Ki was found to be 4.41 µM.
In the case of `O=C(NCCN1CCCC1)[C@H](Cc1ccccc1)n1cnc(-c2cc(Cl)ccc2-n2cc(Cl)nn2)cc1=O` [Example 69, (S)-2-(4-(5-chloro-2-(4-chloro-1H-1,2,3-triazol-1-yl)phenyl)-6-oxopyrimidin-1(6H)-yl)-3-phenyl-N-(2-(pyrrolidin-1-yl)ethyl)propanamide] it was 7.62 µM; in that of `O=C(NCc1ccccn1)[C@H](Cc1ccccc1)n1cnc(-c2cc(Cl)ccc2-n2cc(Cl)nn2)cc1=O` [Example 70, (S)-2-(4-(5-chloro-2-(4-chloro-1H-1,2,3-triazol-1-yl)phenyl)-6-oxopyrimidin-1(6H)-yl)-3-phenyl-N-(pyridin-2-ylmethyl)propanamide], 0.931 µM; in that of `O=C([C@H](Cc1ccccc1)n1cnc(-c2cc(Cl)ccc2-n2cc(Cl)nn2)cc1=O)N1CCc2ccccc2C1` [Example 71, (S)-6-(5-chloro-2-(4-chloro-1H-1,2,3-triazol-1-yl)phenyl)-3-(1-(3,4-dihydroisoquinolin-2(1H)-yl)-1-oxo-3-phenylpropan-2-yl)pyrimidin-4(3H)-one], 0.79 µM.
In the case of `O=C([C@H](Cc1ccccc1)n1cnc(-c2cc(Cl)ccc2-n2cc(Cl)nn2)cc1=O)N1CCC(Cc2ccccc2)CC1` [Example 72, (S)-3-(1-(4-benzylpiperidin-1-yl)-1-oxo-3-phenylpropan-2-yl)-6-(5-chloro-2-(4-chloro-1H-1,2,3-triazol-1-yl)phenyl)pyrimidin-4(3H)-one] it was 13.3 µM; in that of `O=C([C@H](Cc1ccccc1)n1cnc(-c2cc(Cl)ccc2-n2cc(Cl)nn2)cc1=O)N1CCC(c2ccccc2)CC1` [Example 73, (S)-6-(5-chloro-2-(4-chloro-1H-1,2,3-triazol-1-yl)phenyl)-3-(1-oxo-3-phenyl-1-(4-phenylpiperidin-1-yl)propan-2-yl)pyrimidin-4(3H)-one], 4.44 µM; in that of `O=C(NCc1ccncc1)[C@H](Cc1ccccc1)n1cnc(-c2cc(Cl)ccc2-n2cc(Cl)nn2)cc1=O` [Example 74, (S)-2-(4-(5-chloro-2-(4-chloro-1H-1,2,3-triazol-1-yl)phenyl)-6-oxopyrimidin-1(6H)-yl)-3-phenyl-N-(pyridin-4-ylmethyl)propanamide], 0.552 µM.
In the case of `COc1ccc(CNC(=O)[C@H](Cc2ccccc2)n2cnc(-c3cc(Cl)ccc3-n3cc(Cl)nn3)cc2=O)cc1` [Example 75, (S)-2-(4-(5-chloro-2-(4-chloro-1H-1,2,3-triazol-1-yl)phenyl)-6-oxopyrimidin-1(6H)-yl)-N-(4-methoxybenzyl)-3-phenylpropanamide] it was 1.22 µM; in that of `O=C(NCc1ccc(Cl)cc1)[C@H](Cc1ccccc1)n1cnc(-c2cc(Cl)ccc2-n2cc(Cl)nn2)cc1=O` [Example 76, (S)-2-(4-(5-chloro-2-(4-chloro-1H-1,2,3-triazol-1-yl)phenyl)-6-oxopyrimidin-1(6H)-yl)-N-(4-chlorobenzyl)-3-phenylpropanamide], 1.22 µM.
The compound `O=C(NCc1cccnc1)[C@H](Cc1ccccc1)n1cnc(-c2cc(Cl)ccc2-n2cc(Cl)nn2)cc1=O` [Example 77, (S)-2-(4-(5-chloro-2-(4-chloro-1H-1,2,3-triazol-1-yl)phenyl)-6-oxopyrimidin-1(6H)-yl)-3-phenyl-N-(pyridin-3-ylmethyl)propanamide] showed a Ki of 1.45 µM.
In the case of `O=C([C@H](Cc1ccccc1)n1cnc(-c2cc(Cl)ccc2-n2cc(Cl)nn2)cc1=O)N1CCOCC1` [Example 78, (S)-6-(5-chloro-2-(4-chloro-1H-1,2,3-triazol-1-yl)phenyl)-3-(1-morpholino-1-oxo-3-phenylpropan-2-yl)pyrimidin-4(3H)-one] it was 4.45 µM.
In the case of `Cn1ncc2cc(CNC(=O)[C@H](Cc3ccccc3)n3cnc(-c4cc(Cl)ccc4-n4cc(Cl)nn4)cc3=O)ccc21` [Example 79, (S)-2-(4-(5-chloro-2-(4-chloro-1H-1,2,3-triazol-1-yl)phenyl)-6-oxopyrimidin-1(6H)-yl)-N-((1-methyl-1H-indazol-5-yl)methyl)-3-phenylpropanamide] it was 0.63 µM; in that of `CC(C)c1cc(CNC(=O)[C@H](Cc2ccccc2)n2cnc(-c3cc(Cl)ccc3-n3cc(Cl)nn3)cc2=O)on1` [Example 80, (S)-2-(4-(5-chloro-2-(4-chloro-1H-1,2,3-triazol-1-yl)phenyl)-6-oxopyrimidin-1(6H)-yl)-N-((3-isopropylisoxazol-5-yl)methyl)-3-phenylpropanamide], 3.78 µM; in that of `O=C([C@H](Cc1ccccc1)n1cnc(-c2cc(Cl)ccc2-n2cc(Cl)nn2)cc1=O)N1CCC(O)CC1` [Example 81, (S)-6-(5-chloro-2-(4-chloro-1H-1,2,3-triazol-1-yl)phenyl)-3-(1-(4-hydroxypiperidin-1-yl)-1-oxo-3-phenylpropan-2-yl)pyrimidin-4(3H)-one], 4.41 µM.
In the case of `O=C(NCCc1ncn[nH]1)[C@H](Cc1ccccc1)n1cnc(-c2cc(Cl)ccc2-n2cc(Cl)nn2)cc1=O` [Example 82, (S)-N-(2-(1H-1,2,4-triazol-5-yl)ethyl)-2-(4-(5-chloro-2-(4-chloro-1H-1,2,3-triazol-1-yl)phenyl)-6-oxopyrimidin-1(6H)-yl)-3-phenylpropanamide] it was 7.37 µM; in that of `Cn1ccnc1N1CCN(C(=O)[C@H](Cc2ccccc2)n2cnc(-c3cc(Cl)ccc3-n3cc(Cl)nn3)cc2=O)CC1` [Example 83, (S)-6-(5-chloro-2-(4-chloro-1H-1,2,3-triazol-1-yl)phenyl)-3-(1-(4-(1-methyl-1H-imidazol-2-yl)piperazin-1-yl)-1-oxo-3-phenylpropan-2-yl)pyrimidin-4(3H)-one], 3.11 µM.
Compound `NS(=O)(=O)C1CCN(C(=O)[C@H](Cc2ccccc2)n2cnc(-c3cc(Cl)ccc3-n3cc(Cl)nn3)cc2=O)CC1` [Example 84, (S)-1-(2-(4-(5-chloro-2-(4-chloro-1H-1,2,3-triazol-1-yl)phenyl)-6-oxopyrimidin-1(6H)-yl)-3-phenylpropanoyl)piperidine-4-sulfonamide] registered an inhibitory constant (Ki) of 2.52 µM.
In the case of `COCCNC(=O)[C@H](Cc1ccccc1)n1cnc(-c2cc(Cl)ccc2-n2cc(Cl)nn2)cc1=O` [Example 85, (S)-2-(4-(5-chloro-2-(4-chloro-1H-1,2,3-triazol-1-yl)phenyl)-6-oxopyrimidin-1(6H)-yl)-N-(2-methoxyethyl)-3-phenylpropanamide] it was 1.73 µM; in that of `O=C(NCCO)[C@H](Cc1ccccc1)n1cnc(-c2cc(Cl)ccc2-n2cc(Cl)nn2)cc1=O` [Example 86, (S)-2-(4-(5-chloro-2-(4-chloro-1H-1,2,3-triazol-1-yl)phenyl)-6-oxopyrimidin-1(6H)-yl)-N-(2-hydroxyethyl)-3-phenylpropanamide], 5.5 µM; in that of `CC(C)CCNC(=O)[C@H](Cc1ccccc1)n1cnc(-c2cc(Cl)ccc2-n2cc(Cl)nn2)cc1=O` [Example 87, (S)-2-(4-(5-chloro-2-(4-chloro-1H-1,2,3-triazol-1-yl)phenyl)-6-oxopyrimidin-1(6H)-yl)-N-isopentyl-3-phenylpropanamide], 0.21 µM.
In the case of `O=C([C@H](Cc1ccccc1)n1cnc(-c2cc(Cl)ccc2-n2cc(Cl)nn2)cc1=O)N1CCC1` [Example 88, (S)-3-(1-(azetidin-1-yl)-1-oxo-3-phenylpropan-2-yl)-6-(5-chloro-2-(4-chloro-1H-1,2,3-triazol-1-yl)phenyl)pyrimidin-4(3H)-one] it was 5.61 µM; in that of `CCCNC(=O)[C@H](Cc1ccccc1)n1cnc(-c2cc(Cl)ccc2-n2cc(Cl)nn2)cc1=O` [Example 89, (S)-2-(4-(5-chloro-2-(4-chloro-1H-1,2,3-triazol-1-yl)phenyl)-6-oxopyrimidin-1(6H)-yl)-3-phenyl-N-propylpropanamide], 1.94 µM; in that of `CN(C)CCCNC(=O)[C@H](Cc1ccccc1)n1cnc(-c2cc(Cl)ccc2-n2cc(Cl)nn2)cc1=O` [Example 90, (S)-2-(4-(5-chloro-2-(4-chloro-1H-1,2,3-triazol-1-yl)phenyl)-6-oxopyrimidin-1(6H)-yl)-N-(3-(dimethylamino)propyl)-3-phenylpropanamide], 5.92 µM.
